The values that follow are results of earlier work, collected in EP3735959A1, “COMPOSITIONS TO REDUCE HYPERPIGMENTATION” (InnovativeHealth Group SL, priority 2019, dated 2020).

The data set relates to human epidermal melanocytes.

With `C=C(C)[C@@H]1CCC(C)=C[C@H]1c1c(O)cc(CCCCC)cc1O` [CBD, Cannabidiol], the melanogenesis entry (6 µM, by increasing the expression of MITF (reference 6)) is “induced melanogenesis”. For the same compound, the cellular tyrosinase activity result (human epidermal melanocytes, concentration dependent (reference 6)) is given as “significantly increased”.
